{"source": "patent US10131675B2", "about": "(Genentech, Inc., priority 2015, dated 2018)", "data": [{"molecular_target": "DLK (Homo sapiens (Human), UniProt Q12852)", "sequence (Q12852 1-520)": "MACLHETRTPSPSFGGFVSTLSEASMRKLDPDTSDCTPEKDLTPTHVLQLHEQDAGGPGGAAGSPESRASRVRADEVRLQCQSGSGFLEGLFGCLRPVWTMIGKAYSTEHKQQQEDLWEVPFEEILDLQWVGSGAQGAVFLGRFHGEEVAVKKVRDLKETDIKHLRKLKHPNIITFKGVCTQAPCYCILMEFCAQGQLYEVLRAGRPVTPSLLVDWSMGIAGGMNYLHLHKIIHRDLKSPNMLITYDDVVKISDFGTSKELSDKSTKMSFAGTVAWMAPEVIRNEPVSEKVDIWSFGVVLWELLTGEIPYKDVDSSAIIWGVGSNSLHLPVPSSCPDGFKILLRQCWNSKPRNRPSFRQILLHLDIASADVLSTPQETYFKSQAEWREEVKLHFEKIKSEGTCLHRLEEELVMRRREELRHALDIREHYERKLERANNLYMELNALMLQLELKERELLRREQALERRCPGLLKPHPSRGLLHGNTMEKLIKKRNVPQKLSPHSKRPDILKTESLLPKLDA", "test": "DLK TR-FRET Inhibition Assay", "format": "biochemical", "settings": "N-terminally GST-tagged DLK (catalytic domain amino acid 1-520), MKK4 K131M substrate, 30 μM ATP; read-out: DLK HTRF Ki", "in_short": "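GST-tagged DLK catalytic domain (aa 1-520, 5 nM) phosphorylates 40 nM HIS-tagged MKK4 K131M with 30 μM ATP, pH 7.5, 60 min at ambient temperature; compounds 1:3 serial from 20 uM. Phospho-MKK4 detected by TR-FRET (Eu-cryptate anti-phospho-MKK4/D2 anti-HIS) after 3 h.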", "units": {"Ki": "µM"}, "values": [{"compound": "CC1(C)OCCn2c1nc1c(NC3CCCC3)nc(-c3cnc(N)nc3)nc12", "note": "[Example 123, 2-(2-aminopyrimidin-5-yl)-N-cyclopentyl-6,6-dimethyl-8,9-dihydro-6H-[1,4]oxazino[4,3-e]purin-4-amine]", "Ki": 0.0601}, {"compound": "CC1(C)OCCn2c1nc1c(NC3CCC3)nc(-c3cnc(N)nc3)nc12", "note": "[Example 124]", "Ki": 0.0739}, {"compound": "CC1(C)OCCn2c1nc1c(C3CC3)nc(-c3cnc4c(c3)CCN4)nc12", "note": "[Example 125, 4-cyclopropyl-2-(2,3-dihydro-1H-pyrrolo[2,3-b]pyridin-5-yl)-6,6-dimethyl-8,9-dihydro-6H-[1,4]oxazino[4,3-e]purine]", "Ki": 0.626}, {"compound": "CC1(C)OCCn2c1nc1c(C3CC3)nc(-c3cnc(N)c(C#N)c3)nc12", "note": "[Example 126, 2-amino-5-(4-cyclopropyl-6,6-dimethyl-8,9-dihydro-6H-[1,4]oxazino[4,3-e]purin-2-yl)nicotinonitrile]", "Ki": 0.264}, {"compound": "CC1(C)OCCn2c1nc1c(C3CC3)nc(-c3cnc(N)c4nc[nH]c34)nc12", "note": "[Example 127, 7-(4-cyclopropyl-6,6-dimethyl-8,9-dihydro-6H-[1,4]oxazino[4,3-e]purin-2-yl)-1H-imidazo[4,5-c]pyridin-4-amine]", "Ki": 0.15}, {"compound": "CN(C)c1nc(-c2cnc3[nH]cc(C#N)c3c2)nc2c1nc1n2CCCOC1", "note": "[Example 128, 5-(4-(dimethylamino)-6,8,9,10-tetrahydro-[1,4]oxazepino[4,3-e]purin-2-yl)-1H-pyrrolo[2,3-b]pyridine-3-carbonitrile]", "Ki": 0.0179}, {"compound": "CN(C)c1nc(-c2cnc3[nH]cc(C(F)(F)F)c3c2)nc2c1nc1n2CCCOC1", "note": "[Example 129, N,N-dimethyl-2-(3-(trifluoromethyl)-1H-pyrrolo[2,3-b]pyridin-5-yl)-6,8,9,10-tetrahydro-[1,4]oxazepino[4,3-e]purin-4-amine]", "Ki": 0.00164}, {"compound": "COC1CN(c2nc(-c3cnc4[nH]cc(C(F)(F)F)c4c3)nc3c2nc2n3CCOCC2)C1", "note": "[Example 131, 4-(3-methoxyazetidin-1-yl)-2-(3-(trifluoromethyl)-1H-pyrrolo[2,3-b]pyridin-5-yl)-6,7,9,10-tetrahydro-[1,4]oxazepino[4,5-e]purine]", "Ki": 0.0607}, {"compound": "Nc1ncc(-c2nc(N3CC4CC3C4)c3nc4n(c3n2)CCCOC4)cn1", "note": "[Example 132, 5-(4-(2-azabicyclo[2.1.1]hexan-2-yl)-6,8,9,10-tetrahydro-[1,4]oxazepino[4,3-e]purin-2-yl)pyrimidin-2-amine]", "Ki": 0.281}, {"compound": "Nc1ncc(-c2nc(N3CC4CC3C4)c3nc4n(c3n2)CCOCC4)cn1", "note": "[Example 133, 5-(4-(2-azabicyclo[2.1.1]hexan-2-yl)-6,7,9,10-tetrahydro-[1,4]oxazepino[4,5-e]purin-2-yl)pyrimidin-2-amine]", "Ki": 0.447}, {"compound": "CC1(C)OCCCn2c1nc1c(N3CCCC3)nc(-c3cnc(N)nc3)nc12", "note": "[Example 134, 5-(6,6-dimethyl-4-(pyrrolidin-1-yl)-6,8,9,10-tetrahydro-[1,4]oxazepino[4,3-e]purin-2-yl)pyrimidin-2-amine]", "Ki": 0.21}, {"compound": "Nc1ncc(-c2nc(N3CC4CC3C4)c3nc4n(c3n2)CCCOC4)cc1OC(F)F", "note": "[Example 135, 5-(4-(2-azabicyclo[2.1.1]hexan-2-yl)-6,8,9,10-tetrahydro-[1,4]oxazepino[4,3-e]purin-2-yl)-3-(difluoromethoxy)pyridin-2-amine]", "Ki": 0.0308}, {"compound": "COC1CN(c2nc(-c3cnc(N)c(OC(F)F)c3)nc3c2nc2n3CCCOC2)C1", "note": "[Example 136, 3-(difluoromethoxy)-5-(4-(3-methoxyazetidin-1-yl)-6,8,9,10-tetrahydro-[1,4]oxazepino[4,3-e]purin-2-yl)pyridin-2-amine]", "Ki": 0.687}, {"compound": "CC1(C)OCCCn2c1nc1c(N3CC4CC3C4)nc(-c3cnc(N)nc3)nc12", "note": "[Example 137, 5-(4-(2-azabicyclo[2.1.1]hexan-2-yl)-6,6-dimethyl-6,8,9,10-tetrahydro-[1,4]oxazepino[4,3-e]purin-2-yl)pyrimidin-2-amine]", "Ki": 0.177}, {"compound": "CC1(C)OCCn2c1nc1c(N3CC4CC3C4)nc(-c3cnc(N)c(C#N)c3)cc12", "note": "[Example 144]", "Ki": 0.00223}, {"compound": "COC1CN(c2nc(-c3cnc4[nH]cc(C(F)(F)F)c4c3)nc3c2nc2n3CCCOC2)C1", "note": "[Example 145]", "Ki": 0.00649}, {"compound": "CC1(C)OCCn2c1nc1c(N3CC4CC3C4)nc(-c3cnc4[nH]cnc4c3)nc12", "note": "[Example 146]", "Ki": 0.0322}, {"compound": "CC1(C)OCCn2c1nc1c(N3CC4CCC3C4)nc(-c3cnc4[nH]cnc4c3)nc12", "note": "(centres unmarked) [Example 147]", "Ki": 0.0395}, {"compound": "CC1(C)OCCn2c1nc1c(C3CC3)nc(-c3cnc(N)c(OC(F)F)c3)cc12", "note": "[Example 148]", "Ki": 0.0569}, {"compound": "COC1CN(c2nc(-c3cnc(N)c(OC(F)F)c3)nc3c2nc2n3CCOC2(C)C)C1", "note": "[Example 149]", "Ki": 0.0737}, {"compound": "CC1(C)OCCn2c1nc1c(N3CC4CC3C4)nc(-c3cnc(N)c(C(F)(F)F)c3)nc12", "note": "[Example 150]", "Ki": 0.112}, {"compound": "C[C@H]1Cn2c(nc3c(N4CC5CC4C5)nc(-c4cnc(N)nc4)nc32)[C@@H](C)O1", "note": "[Example 151]", "Ki": 0.12}, {"compound": "CC1(C)OCCn2c1nc1c(N3CC(C#N)C3)nc(-c3cnc4[nH]cc(F)c4c3)nc12", "note": "[Example 152]", "Ki": 0.183}, {"compound": "C[C@@H]1O[C@@H](C)Cn2c1nc1c(N3CC4CC3C4)nc(-c3cnc(N)nc3)nc12", "note": "[Example 153]", "Ki": 0.261}, {"compound": "CC(Oc1nc(-c2cnc(N)nc2)nc2c1nc1n2CCOC1(C)C)C1CC1", "note": "(centres unmarked) [Example 155]", "Ki": 1.2}, {"compound": "CC1(C)OCCn2c1nc1c(N3CCC4(CCCO4)C3)nc(-c3cnc(N)nc3)nc12", "note": "(centres unmarked) [Example 156]", "Ki": 1.3}]}]}
